Laboratory results from US7307081B2, “Piperidine derivatives useful as CCR5 antagonists” (priority 2002, dated 2007).
Where two headings read alike, the source gives them in different places.

System: HIV-1 luciferase reporter virus (ADA-Luc-FL, YU-2-Luc-FL, HxB-Luc-FL) in U87-CD4-CCR5 cells
Test: Luciferase Replication Assay (HIV replication)
Assay type: cell-based
Procedure: Luciferase Replication Assay:
Plasmids encoding the full length genome of HIV-1 pNL-4-Luc with the gp 120 V-3 loop replaced by the Bgl II fragment of HIV-1 ADA, YU-2 or HxB (ADA-Luc-FL, YU-2-Luc-FL and HxB-Luc-FL) are obtained from Dr. Susan Pontow (Washington University, St. Louis Mo.). Replication-competent luciferase reporter virus stocks are generated by transfection of plasmids into 293T cells using Superfect (Qiagen) or Mirus transfection reagents. Viral stocks are collected 48 hours following transfection and titered for luciferase production on U-87-CCR5 or CXCR4 cells. U87-CD4-CCR5 cells (10^4/ well) are plated in 96-well cell culture plates and incubated overnight. Media is removed and replaced with 50 μl of fresh culture media (DMEM, 10% FCS) and 50 μl of compound diluted in culture medium. Cells are incubated with compound at 37° C. for 1 hour. The resultant supernatant is removed and replaced with 20 μl of media containing compound and infected with an equal volume of diluted or undiluted virus stock at 37° C. for 3-4 hours. The cells are washed once with DMEM, and 200 μl of media containing compound is added. The cultures are incubated for 3 days, the cells lysed in luciferase lysis buffer (Promega, Madison, Wis.) and transferred to Immulon plates (Dynex Technologies, Chantilly Va.). An equal volume of luciferase substrate (Promega, Madison Wis.) is added to lysates and the plates read immediately in a Wallac Luminometer. Fifty and ninety percent inhibitory concentrations are determined using GraphPad PRISM software.

[1] = Human immunodeficiency virus 1, U87/CD4/CCR5, 72 h, read-out: HIV Replication (Luciferase) IC50 nM, U87-CD4-CCR5 cells, replication-competent luciferase reporter virus, cultures incubated 3 days
[2] = read-out: HIV Replication (Luciferase) IC50 nM, U87-CD4-CCR5 cells, replication-competent luciferase reporter virus, cultures incubated 3 days

| Compound | IC50 [1] | IC50 [2] |
| --- | --- | --- |
| Cc1ncnc(C)c1C(=O)N1CCC(C)(N2CCN(C(Cc3ccccc3)C3CCCN(S(=O)(=O)C4CC4)C3)[C@@H](C)C2)CC1 (mixture of isomers) [Example 1] | 2 nM |  |
| COc1ccc(CN2CCCC(C(Cc3ccccc3)N3CCN(C4(C)CCN(C(=O)c5c(C)ncnc5C)CC4)C[C@@H]3C)C2)cc1 (mixture of isomers) [Example 2] | 25 nM |  |
| Cc1ncnc(C)c1C(=O)N1CCC(C)(N2CCN(C(Cc3ccccc3)C3CCCN(S(=O)(=O)c4cccc(Cl)c4)C3)[C@@H](C)C2)CC1 (mixture of isomers) [Example 3] | 2 nM |  |
| Cc1ncnc(C)c1C(=O)N1CCC(C)(N2CCN(C(Cc3ccccc3)C3CCCNC3)[C@@H](C)C2)CC1 (mixture of isomers) [Example 4] | 4 nM |  |
| Cc1ncnc(C)c1C(=O)N1CCC(C)(N2CCN([C@@H](c3cccc(F)c3)C3CCN(S(=O)(=O)C4CC4)C3)[C@@H](C)C2)CC1 (mixture of isomers) [Example 11] | 0.3 nM |  |
| Cc1ncnc(C)c1C(=O)N1CCC(C)(N2CCN(C(c3ccccc3)C3CCCN(S(=O)(=O)C4CC4)C3)[C@@H](C)C2)CC1 (stereo partly shown) [Example 5] |  | 15 nM |
| Cc1ncnc(C)c1C(=O)N1CCC(C)(N2CCN(C(c3ccccc3)C3CCCN(S(=O)(=O)C4CC4)C3)[C@@H](C)C2)CC1 (stereo partly shown) [Example 6] |  | 0.7 nM |
| Cc1ncnc(C)c1C(=O)N1CCC(C)(N2CCN(C(c3ccccc3)C3CCCN(S(C)(=O)=O)C3)[C@@H](C)C2)CC1 (stereo partly shown) [Example 7] | 0.5 nM |  |
| COc1ccc(CN2CCCC([C@H](c3ccccc3)N3CCN(C4(C)CCN(C(=O)c5c(C)ncnc5C)CC4)C[C@@H]3C)C2)cc1 (stereo partly shown) [Example 8] | 1.6 nM |  |
| Cc1ncnc(C)c1C(=O)N1CCC(C)(N2CCN([C@@H](c3ccccc3)C3CCCNC3)[C@@H](C)C2)CC1 (stereo partly shown) [Example 9] | 11 nM |  |
| Cc1ncnc(C)c1C(=O)N1CCC(C)(N2CCN(C(CC3CCN(S(=O)(=O)C4CC4)CC3)c3cccc(F)c3)[C@@H](C)C2)CC1 (stereo partly shown) [Example 10] | 3 nM |  |
| Cc1ncnc(C)c1C(=O)N1CCC(C)(N2CCN([C@@H](c3cccc(F)c3)C3CN(S(=O)(=O)C4CC4)C3)[C@@H](C)C2)CC1 [Example 12] | 1 nM |  |
| Cc1ncnc(C)c1C(=O)N1CCC(C)(N2CCN([C@@H](c3cccc(F)c3)C3CN(S(=O)(=O)c4ccccc4)C3)[C@@H](C)C2)CC1 [Example 13] | 0.7 nM |  |
| Cc1ncnc(C)c1C(=O)N1CCC(C)(N2CCN([C@@H](c3cccc(F)c3)C3CN(S(C)(=O)=O)C3)[C@@H](C)C2)CC1 [Example 14] | 2 nM |  |
| Cc1ncnc(C)c1C(=O)N1CCC(C)(N2CCN([C@@H](c3cccc(F)c3)C3CN(C(=O)C4CC4)C3)[C@@H](C)C2)CC1 [Example 15] | 5 nM |  |
| Cc1ncnc(C)c1C(=O)N1CCC(C)(N2CCN([C@@H](Cc3ccccc3)C3CN(S(=O)(=O)C4CC4)C3)[C@@H](C)C2)CC1 [Example 16] | 4 nM |  |
| Cc1ncnc(C)c1C(=O)N1CCC(C)(N2CCN([C@@H](Cc3ccccc3)C3CN(S(=O)(=O)c4ccccc4)C3)[C@@H](C)C2)CC1 [Example 17] | 0.4 nM |  |
| Cc1ncnc(C)c1C(=O)N1CCC(C)(N2CCN([C@@H](Cc3ccccc3)C3CN(S(C)(=O)=O)C3)[C@@H](C)C2)CC1 [Example 18] | 17 nM |  |
| Cc1ncnc(C)c1C(=O)N1CCC(C)(N2CCN([C@@H](Cc3ccccc3)C3CN(C(=O)C4CC4)C3)[C@@H](C)C2)CC1 [Example 19] | 13 nM |  |
